Data on nine compounds can be found in patent publication US20250340886A1, “INTRACELLULAR KINASE ASSOCIATED WITH RESISTANCE AGAINST ANTI-TUMOUR IMMUNE RESPONSES, AND USES THEREOF” (iOmx Therapeutics AG, priority 2017, published 2025).

For one data set, the target named is SIK2 (Homo sapiens (Human), UniProt Q9H0K1). Briefly: radiometric protein kinase assay (33PanQinase Activity Assay, ProQinase Free Choice Kinase Assay). The format is biochemical. The settings on record: ATP 1.0 uM, read-out: SIK2 IC50 rank.
Sequence of SIK2 (Q9H0K1 whole entry): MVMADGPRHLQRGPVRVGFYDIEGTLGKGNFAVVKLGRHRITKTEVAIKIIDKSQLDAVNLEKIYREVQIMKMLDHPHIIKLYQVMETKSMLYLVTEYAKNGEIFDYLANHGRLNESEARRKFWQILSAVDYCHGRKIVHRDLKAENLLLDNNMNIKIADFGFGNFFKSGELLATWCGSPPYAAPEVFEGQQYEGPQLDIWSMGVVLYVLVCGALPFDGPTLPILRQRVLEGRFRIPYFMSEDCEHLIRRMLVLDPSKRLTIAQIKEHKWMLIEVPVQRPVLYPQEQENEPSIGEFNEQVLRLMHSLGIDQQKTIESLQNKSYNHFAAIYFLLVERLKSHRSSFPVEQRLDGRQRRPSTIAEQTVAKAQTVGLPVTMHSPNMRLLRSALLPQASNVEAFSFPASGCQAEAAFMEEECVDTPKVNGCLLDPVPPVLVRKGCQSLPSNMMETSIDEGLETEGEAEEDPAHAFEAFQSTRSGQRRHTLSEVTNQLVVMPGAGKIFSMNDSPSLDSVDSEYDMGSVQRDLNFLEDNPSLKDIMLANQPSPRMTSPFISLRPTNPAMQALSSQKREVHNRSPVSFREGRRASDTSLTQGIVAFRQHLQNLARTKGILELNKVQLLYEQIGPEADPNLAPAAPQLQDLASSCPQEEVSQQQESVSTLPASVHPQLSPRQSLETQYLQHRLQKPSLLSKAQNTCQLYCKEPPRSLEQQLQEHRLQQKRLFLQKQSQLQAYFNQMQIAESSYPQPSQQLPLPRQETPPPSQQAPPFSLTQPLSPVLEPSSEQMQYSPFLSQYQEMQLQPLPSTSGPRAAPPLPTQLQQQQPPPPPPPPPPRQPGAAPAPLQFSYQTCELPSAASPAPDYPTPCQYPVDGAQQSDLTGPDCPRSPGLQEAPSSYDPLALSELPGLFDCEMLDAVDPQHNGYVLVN
Another data set relates to M579-A2-luc tumour cells. The data set can be described thus: luciferase-based tumour cell viability assay, M579-A2-luc cells with inhibitor and TNF. The settings on record: for tumour cell survival (RLU): in combination with 10 ng/mL TNF, about 20 to 100 nM, FIG. 18.
The target in another data set is SIK3 (Homo sapiens (Human), UniProt Q9Y2K2). The data set can be described thus: radiometric protein kinase assay (33PanQinase Activity Assay, ProQinase Free Choice Kinase Assay). The format is biochemical. The settings on record: read-out: SIK3 IC50 rank.
Sequence of SIK3 (Q9Y2K2 whole entry): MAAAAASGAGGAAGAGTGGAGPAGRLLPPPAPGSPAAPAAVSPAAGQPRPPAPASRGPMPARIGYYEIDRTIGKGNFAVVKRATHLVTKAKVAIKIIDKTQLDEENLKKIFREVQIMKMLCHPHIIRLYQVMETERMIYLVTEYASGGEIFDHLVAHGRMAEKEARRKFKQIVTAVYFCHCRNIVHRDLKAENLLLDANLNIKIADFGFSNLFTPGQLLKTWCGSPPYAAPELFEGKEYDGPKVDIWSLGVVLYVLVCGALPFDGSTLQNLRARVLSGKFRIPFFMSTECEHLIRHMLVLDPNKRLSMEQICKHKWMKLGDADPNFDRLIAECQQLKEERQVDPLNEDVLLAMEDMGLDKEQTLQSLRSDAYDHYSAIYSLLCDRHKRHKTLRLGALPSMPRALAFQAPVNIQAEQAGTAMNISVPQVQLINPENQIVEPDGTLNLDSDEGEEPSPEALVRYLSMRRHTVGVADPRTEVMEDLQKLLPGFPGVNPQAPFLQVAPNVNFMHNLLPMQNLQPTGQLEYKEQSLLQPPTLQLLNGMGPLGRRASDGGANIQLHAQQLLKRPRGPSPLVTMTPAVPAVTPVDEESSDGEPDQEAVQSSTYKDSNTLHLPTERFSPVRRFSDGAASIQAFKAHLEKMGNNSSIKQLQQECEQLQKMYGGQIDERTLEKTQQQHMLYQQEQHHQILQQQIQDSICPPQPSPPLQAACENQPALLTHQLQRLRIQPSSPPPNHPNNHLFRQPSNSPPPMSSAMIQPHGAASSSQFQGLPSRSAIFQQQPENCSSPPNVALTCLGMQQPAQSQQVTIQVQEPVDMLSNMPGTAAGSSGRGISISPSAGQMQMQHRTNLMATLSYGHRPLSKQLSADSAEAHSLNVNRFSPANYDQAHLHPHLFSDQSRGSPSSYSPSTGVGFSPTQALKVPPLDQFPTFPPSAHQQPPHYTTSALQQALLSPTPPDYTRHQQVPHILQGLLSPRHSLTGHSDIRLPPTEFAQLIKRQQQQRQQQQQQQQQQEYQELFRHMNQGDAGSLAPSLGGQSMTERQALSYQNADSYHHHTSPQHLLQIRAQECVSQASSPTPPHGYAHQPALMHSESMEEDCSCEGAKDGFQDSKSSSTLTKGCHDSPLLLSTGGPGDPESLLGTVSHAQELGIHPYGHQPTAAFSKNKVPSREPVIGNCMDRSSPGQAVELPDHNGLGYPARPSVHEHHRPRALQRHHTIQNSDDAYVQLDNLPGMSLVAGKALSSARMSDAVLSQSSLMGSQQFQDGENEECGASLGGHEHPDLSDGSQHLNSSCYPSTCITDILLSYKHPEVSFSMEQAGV
The target of a further data set is SIK1 (Homo sapiens (Human), UniProt P57059). The description is as above. The format is biochemical. The settings on record: ATP 3.0 uM, read-out: SIK1 IC50 rank.
Sequence of SIK1 (P57059 whole entry): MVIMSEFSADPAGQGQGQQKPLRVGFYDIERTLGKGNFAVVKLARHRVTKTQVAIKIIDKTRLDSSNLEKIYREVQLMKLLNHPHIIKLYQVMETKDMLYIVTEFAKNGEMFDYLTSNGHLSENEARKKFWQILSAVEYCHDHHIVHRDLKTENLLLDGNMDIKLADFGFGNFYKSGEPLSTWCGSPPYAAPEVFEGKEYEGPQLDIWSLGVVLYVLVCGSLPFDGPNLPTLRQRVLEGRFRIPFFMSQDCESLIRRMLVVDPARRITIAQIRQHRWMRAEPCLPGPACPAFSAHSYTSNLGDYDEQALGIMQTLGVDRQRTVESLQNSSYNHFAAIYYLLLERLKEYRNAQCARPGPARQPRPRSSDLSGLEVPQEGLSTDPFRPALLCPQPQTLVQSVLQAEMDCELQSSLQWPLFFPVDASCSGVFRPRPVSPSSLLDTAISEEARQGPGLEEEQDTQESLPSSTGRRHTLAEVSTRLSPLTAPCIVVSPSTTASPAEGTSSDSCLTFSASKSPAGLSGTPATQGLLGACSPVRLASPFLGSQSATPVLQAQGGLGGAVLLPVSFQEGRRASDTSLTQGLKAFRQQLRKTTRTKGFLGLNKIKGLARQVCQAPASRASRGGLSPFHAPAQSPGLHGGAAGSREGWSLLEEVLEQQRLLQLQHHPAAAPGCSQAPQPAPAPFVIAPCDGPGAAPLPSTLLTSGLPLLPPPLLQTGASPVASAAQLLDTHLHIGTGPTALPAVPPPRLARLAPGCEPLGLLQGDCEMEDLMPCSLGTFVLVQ
The next data set has as its target SRC (GST-HIS-tag) (Homo sapiens (Human), UniProt P12931). The data set is described as above. The format is biochemical. The settings on record: indicative IC50, Table 4; ATP 0.3 uM; read-out: SRC IC50 rank.
The next data set addresses ABL1 wt (Homo sapiens (Human), UniProt P00519). The data set is described as above. The format is biochemical. As to conditions: indicative IC50, Table 4; ATP 0.3 uM; read-out: ABL1 IC50 rank.
For data set [1], the system named is PANC-1 tumour cells. Briefly: Luc-CTL assay: PANC-1 cells co-cultured with TIL #1 in the presence of small molecule SIK inhibitor. The settings on record: FIGS. 7A and 7B.
The subject of data set [2] is PANC-1 tumour cells.
A further data set concerns PANC-1-luc cells. Briefly: luciferase-based T cell-mediated killing assay of siRNA-transfected PANC-1-luc cells. Also noted: species or system human. As to conditions: absence of T cells (viability setting). The source says:
FIG. 2: Luciferase-based cytotoxicity assay for the assessment of T cell-mediated killing of siRNA transfected PANC-1-luc cells.
The inventors describe herein their surprising finding that SIK3 is a gene involved in tumour cell resistance against a cell-mediated immune response. Such role of SIK3 was first identified by the inventors using a high-throughput screening approach—to identify novel genes involved in mechanisms of tumour resistance towards T cell attack—as adapted and expanded from the screening approach developed and described by Khandelwal et al, 2015 (EMBO Mol Med 7:450). Briefly, using a siRNA library, 2514 genes were individually knocked-down in HLA-A2.1+ luciferase-expressing PANC1 cells (PANC1-luc), a pancreatic adenocarcinoma (PDAC) tumour cell line. Each gene's siRNA-transfected PANC1-luc tumour cells were then co-cultured with magnetically purified CD8+ T cells from an HLA-A2.1+ PDAC-derived tumour infiltrating lymphocyte culture (TIL #1). The impact of siRNA-mediated gene knockdown on TIL-mediated killing of tumour cells was measured using a luciferase-based cytotoxicity assay (cytotoxicity setting). In order to exclude those genes whose knockdown intrinsically affects cell viability, complementary screening was performed without the addition of TIL #1 (viability setting). False positive genes were further excluded using a luciferase-independent viability screen.
The present invention is based on the dramatic impact that inhibition of SIK3 of tumour cells determines a reduction of tumour cell survival after co-culture with a cell-mediated immune response. […]
The PANC1-luc cell line was constructed as follows: PANC-1 cells were acquired from the American Type Cell Culture (ATCC). […] After lysis, luciferase assay buffer was added and immediately the luciferase intensity was measured by using the TECAN-Spark microplate reader.

The test system of the next data set is M579 cells. Briefly: real-time live-cell microscopy of TIL209-mediated lysis of shRNA-transduced tumour cells. The format is cell-based, human. As to conditions: co-culture with HLA-A2.1+-matched TIL209, compared to shCtrl. The source says: FIG. 15: Real-time live cell microscopy showing mean+/−SEM of TIL209-mediated lysis of M579 cells transduced with shCtrl or shSIK3 lentiviral constructs. The graph indicates the area of YOYO-1+ cells/well (um2/well).
SIK3 was stably knocked down in the primary line using SIK3-specific shRNA (shSIK3) or the control non-targeting shRNA sequence (shCtrl). The shRNA sequences targeting SIK3 are set forth in Table A2, and the transduced cell lines were produced briefly as follows: lentiviral transduction particles expressing an shRNA targeting SIK3 mRNA or control shRNA (Sigma-Aldrich) were used for transduction. 5×10^4 […] cells were seeded in a 6 well plate in DMEM 10% FCS 1% P/S. After 24 h, lentiviral particles were added using multiplicity of infection (MOI)=2. 48 h from transduction, cells were put under positive selection using 0.4 μg/ml puromycin. First, the shSIK3 or shCtrl transduced tumour cells were co-cultured with HLA-A2.1+−matched TIL209, and the extent of T cell-mediated killing was monitored using in vitro real-time live-cell microscopy. […] Second, the shSIK3 and shCtrl transduced tumour cells were subcutaneously injected into the left and the right flank, respectively, of NSG immune deficient mice (FIG. 16A), and adoptive cell transfer of TIL209 or PBS injection was applied i.v. once per week (FIG. 16B Scheme).

For a further data set, the system named is M579 tumours. Briefly: in vivo adoptive T cell transfer model, shCtrl or shSIK3-transduced M579 tumours in NSG mice. Also noted: species or system mouse. The source says:
FIG. 16: (A) Schematic representation of the in vivo mouse experiment. Subcutaneous (s.c.) implantation of shCtrl or shSIK3-transduced M579 cells was applied to the left and the right flank of immunodeficient (NOD scid gamma; NSG) mice, respectively. (B) Mice received intravenous (i.v.) injection of TIL209 (n=9) or PBS alone (n=7) at day 3, 10, 17 and 24. (C) Tumour growth curves showing mean+/−SEM of tumour volume (mm3) of shCtrl or shSIK3-engrafted M579 tumours in mice treated with either TIL209 or PBS. Statistical difference was calculated using unpaired one-side Mann-Whitney U-test. (D) Binding of TNF to TNFR1 (TNFR-I) on tumour cells results in downstream signalling cascade that involve caspase 8 cleavage, NF-kappaB nuclear translocation and SIK3 phosphorylation. NF-kappaB nuclear retention is sustained by its acetylation, and HDAC4 deacetylase acts as negative regulator of NF-kappaB. TNF stimulation increases the levels of pLKB1 which in turn results in increased SIK3 activation. […]
SIK3 was stably knocked down in the primary line using SIK3-specific shRNA (shSIK3) or the control non-targeting shRNA sequence (shCtrl). […] First, the shSIK3 or shCtrl transduced tumour cells were co-cultured with HLA-A2.1+−matched TIL209, and the extent of T cell-mediated killing was monitored using in vitro real-time live-cell microscopy. […]

The mark [3] stands for this setting: indicative IC50, Table 2A, ATP 1.0 uM.

Read-outs that look alike come from different tables or passages of the source.

Sequence of ABL1 wt (P00519 whole entry): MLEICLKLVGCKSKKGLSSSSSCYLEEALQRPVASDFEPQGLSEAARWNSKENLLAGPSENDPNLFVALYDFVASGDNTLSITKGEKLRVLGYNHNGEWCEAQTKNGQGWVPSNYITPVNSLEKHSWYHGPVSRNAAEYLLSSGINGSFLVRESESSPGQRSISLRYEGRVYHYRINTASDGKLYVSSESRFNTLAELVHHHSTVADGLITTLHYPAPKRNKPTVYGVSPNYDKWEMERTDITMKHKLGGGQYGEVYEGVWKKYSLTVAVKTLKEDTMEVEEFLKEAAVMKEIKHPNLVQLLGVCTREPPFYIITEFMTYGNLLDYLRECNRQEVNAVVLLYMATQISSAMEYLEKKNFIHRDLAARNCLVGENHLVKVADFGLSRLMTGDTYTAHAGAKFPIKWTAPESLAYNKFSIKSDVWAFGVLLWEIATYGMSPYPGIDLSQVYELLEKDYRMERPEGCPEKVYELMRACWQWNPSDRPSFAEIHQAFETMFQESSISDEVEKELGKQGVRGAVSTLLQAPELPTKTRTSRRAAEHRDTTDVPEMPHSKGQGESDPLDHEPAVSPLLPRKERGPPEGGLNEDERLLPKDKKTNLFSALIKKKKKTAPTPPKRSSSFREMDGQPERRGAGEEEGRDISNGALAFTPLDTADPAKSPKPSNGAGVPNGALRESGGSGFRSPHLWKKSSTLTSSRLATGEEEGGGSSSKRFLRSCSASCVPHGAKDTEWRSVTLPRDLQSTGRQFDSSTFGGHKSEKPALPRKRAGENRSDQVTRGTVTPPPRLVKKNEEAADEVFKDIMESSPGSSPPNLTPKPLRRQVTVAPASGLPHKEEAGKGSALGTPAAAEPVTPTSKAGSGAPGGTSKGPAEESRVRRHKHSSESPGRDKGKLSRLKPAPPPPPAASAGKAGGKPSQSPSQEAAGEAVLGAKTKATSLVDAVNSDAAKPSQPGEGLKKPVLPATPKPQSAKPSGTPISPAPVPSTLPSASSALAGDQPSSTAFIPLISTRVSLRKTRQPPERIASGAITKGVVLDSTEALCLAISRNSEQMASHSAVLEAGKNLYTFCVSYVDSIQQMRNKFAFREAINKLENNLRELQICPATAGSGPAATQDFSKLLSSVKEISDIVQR
Sequence of SRC (GST-HIS-tag) (P12931 whole entry, looked up): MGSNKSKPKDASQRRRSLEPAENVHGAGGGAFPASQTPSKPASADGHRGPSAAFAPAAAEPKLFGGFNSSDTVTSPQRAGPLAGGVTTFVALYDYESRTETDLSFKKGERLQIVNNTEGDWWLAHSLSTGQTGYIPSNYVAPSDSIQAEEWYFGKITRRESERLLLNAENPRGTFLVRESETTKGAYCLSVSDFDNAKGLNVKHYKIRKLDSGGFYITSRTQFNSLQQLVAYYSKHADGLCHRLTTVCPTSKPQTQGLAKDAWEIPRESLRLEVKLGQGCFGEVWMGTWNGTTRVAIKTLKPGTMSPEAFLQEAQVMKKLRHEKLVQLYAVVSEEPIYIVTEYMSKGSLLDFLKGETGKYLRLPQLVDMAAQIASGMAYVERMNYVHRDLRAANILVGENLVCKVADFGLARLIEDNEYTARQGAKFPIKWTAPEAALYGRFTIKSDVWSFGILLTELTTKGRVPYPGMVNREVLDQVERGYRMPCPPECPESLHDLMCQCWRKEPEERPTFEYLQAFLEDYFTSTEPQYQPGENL

In general, IC50 refers to the concentration that gives 50% inhibition. For `Cc1nc(Nc2ncc(C(=O)Nc3ccccc3S(=O)(=O)C(C)C)s2)cc(N2CCN(CCO)CC2)n1` [Compound A6, 2-((6-(4-(2-hydroxyethyl)piperazin-1-yl)-2-methylpyrimidin-4-yl)amino)-N-(2-(propane-2-sulfonyl)phenyl)thiazole-5-carboxamide], the IC50 at SIK2 (indicative IC50, Table 2A) was over 100 nM; on SIK3 (setting [3]) it was over 1000 nM; at SIK1 (indicative IC50, Table 2A) it was over 1000 nM. In addition, the “tumour cell survival (RLU)” value with M579-A2-luc tumour cells was “remains unaffected”.
In the case of `Cc1nc(Nc2ncc(C(=O)Nc3ccccc3)s2)cc(N2CCN(CCO)CC2)n1` [Compound A11, ((6-(4-(2-hydroxyethyl)piperazin-1-yl)-2-methylpyrimidin-4-yl)amino)-N-phenylthiazole-5-carboxamide], the IC50 at SIK2 (indicative IC50, Table 2A) is over 100 nM; at SIK3 (setting [3]), over 1000 nM; on SIK1 (indicative IC50, Table 2A), over 100 nM. In the data set with M579-A2-luc tumour cells, the “tumour cell survival (RLU)” value is “remains unaffected”.
Consider `CCOc1cccc(Cl)c1NC(=O)c1cnc(Nc2cc(N3CCN(CCO)CC3)nc(C)n2)s1` [Compound B8, N-(2-chloro-6-ethoxyphenyl)-2-((6-(4-(2-hydroxyethyl)piperazin-1-yl)-2-methylpyrimidin-4-yl)amino)thiazole-5-carboxamide], for which the IC50 at SIK2 (indicative IC50, Table 4) is over 1000 nM; at SRC (GST-HIS-tag) it was under 100 nM; at ABL1 wt, under 100 nM; at SIK3, over 5000 nM; on SIK1 (indicative IC50, Table 4), over 1000 nM. Also, the “cytotoxicity of M579 A2 cells in combination with TNF compared to inhibitor alone” value in the data set with M579-A2-luc tumour cells (TNF 10 ng/mL, inhibitor between about 10 and 100 nM, FIG. 17) is on record as “fails to exhibit cytotoxicity”.
Consider `COc1cc(Nc2c(C#N)cnc3cc(OCCCN4CCN(C)CC4)c(OC)cc23)c(Cl)cc1Cl` [bosutinib, 3-Quinolinecarbonitrile, 4-[(2,4-dichloro-5-methoxyphenyl)amino]-6-methoxy-7-[3-(4-methyl-1-piperazinyl)propoxy]-, hydrate (1:1)], for which the “sensitivity to TILs and/or TNF-mediated tumour lysis (cytotoxicity to viability ratio in Luc-CTL assay)” value with PANC-1 tumour cells [1] is listed as “remarkable increase in sensitivity to TILs and/or TNF-mediated tumour lysis”.
With HG-9-91-01, the “sensitivity to TILs and/or TNF-mediated tumour lysis (cytotoxicity to viability ratio in Luc-CTL assay)” value in the data set on PANC-1 tumour cells [2] is reported as “remarkable increase in sensitivity to TILs and/or TNF-mediated tumour lysis”.
For the compound “s1: SIK3 siRNA, sequence GCGCCAGGCUUUAUCUUAU, Dharmacon D-004779-01 (listed as RNA, chemistry not given here)”, in the data set with PANC-1-luc cells, the “cell viability of tumour cells” value is given as “slight reduction of cell viability”.
The same measure, in the same setting: the same measure for “s2: SIK3 siRNA, sequence GAACAGCGACGAUGCUUAU, Dharmacon D-004779-05 (listed as RNA, chemistry not given here)”: “slight reduction of cell viability”; for “s3: SIK3 siRNA, sequence GCACUAACCUGCUUGGGUA, Dharmacon D-004779-06 (listed as RNA, chemistry not given here)”: “slight reduction of cell viability”.
Consider “shSIK3: SIK3-specific shRNA, Sigma TRCN0000037452, delivered by lentiviral transduction particles (DNA CCGGGCCAGGCTTTATCTTATCAAACTCGAGTTTGATAAGATAAAGCCTGGCTTTTTG)”, for which, in the data set on M579 cells, the T cell-mediated killing result is “increased killing efficacy”. For the same compound, the tumour growth kinetic result in the data set with M579 tumours (PBS-treated, shCtrl versus shSIK3) was “no difference in the tumour growth kinetic”. Moreover, in the data set with M579 tumours (s.c. tumours, TIL209 i.v. once per week, compared to shCtrl), the tumour growth result is “retardation of tumour growth”.
